Experimental data: ChEMBL document CHEMBL2074361, “Effect of mdr1a P-glycoprotein gene disruption, gender, and substrate concentration on brain uptake of selected compounds” (Pharm Res, 2001)

Biological target: ATP-dependent translocase ABCB1 (Mus musculus, UniProt P21447)
Assay: TP_TRANSPORTER: increase in brain concentration in mdr1a(-/-) mouse
Format: functional, organism-based
Conditions: in vivo

Chain of ATP-dependent translocase ABCB1 (P21447 whole entry): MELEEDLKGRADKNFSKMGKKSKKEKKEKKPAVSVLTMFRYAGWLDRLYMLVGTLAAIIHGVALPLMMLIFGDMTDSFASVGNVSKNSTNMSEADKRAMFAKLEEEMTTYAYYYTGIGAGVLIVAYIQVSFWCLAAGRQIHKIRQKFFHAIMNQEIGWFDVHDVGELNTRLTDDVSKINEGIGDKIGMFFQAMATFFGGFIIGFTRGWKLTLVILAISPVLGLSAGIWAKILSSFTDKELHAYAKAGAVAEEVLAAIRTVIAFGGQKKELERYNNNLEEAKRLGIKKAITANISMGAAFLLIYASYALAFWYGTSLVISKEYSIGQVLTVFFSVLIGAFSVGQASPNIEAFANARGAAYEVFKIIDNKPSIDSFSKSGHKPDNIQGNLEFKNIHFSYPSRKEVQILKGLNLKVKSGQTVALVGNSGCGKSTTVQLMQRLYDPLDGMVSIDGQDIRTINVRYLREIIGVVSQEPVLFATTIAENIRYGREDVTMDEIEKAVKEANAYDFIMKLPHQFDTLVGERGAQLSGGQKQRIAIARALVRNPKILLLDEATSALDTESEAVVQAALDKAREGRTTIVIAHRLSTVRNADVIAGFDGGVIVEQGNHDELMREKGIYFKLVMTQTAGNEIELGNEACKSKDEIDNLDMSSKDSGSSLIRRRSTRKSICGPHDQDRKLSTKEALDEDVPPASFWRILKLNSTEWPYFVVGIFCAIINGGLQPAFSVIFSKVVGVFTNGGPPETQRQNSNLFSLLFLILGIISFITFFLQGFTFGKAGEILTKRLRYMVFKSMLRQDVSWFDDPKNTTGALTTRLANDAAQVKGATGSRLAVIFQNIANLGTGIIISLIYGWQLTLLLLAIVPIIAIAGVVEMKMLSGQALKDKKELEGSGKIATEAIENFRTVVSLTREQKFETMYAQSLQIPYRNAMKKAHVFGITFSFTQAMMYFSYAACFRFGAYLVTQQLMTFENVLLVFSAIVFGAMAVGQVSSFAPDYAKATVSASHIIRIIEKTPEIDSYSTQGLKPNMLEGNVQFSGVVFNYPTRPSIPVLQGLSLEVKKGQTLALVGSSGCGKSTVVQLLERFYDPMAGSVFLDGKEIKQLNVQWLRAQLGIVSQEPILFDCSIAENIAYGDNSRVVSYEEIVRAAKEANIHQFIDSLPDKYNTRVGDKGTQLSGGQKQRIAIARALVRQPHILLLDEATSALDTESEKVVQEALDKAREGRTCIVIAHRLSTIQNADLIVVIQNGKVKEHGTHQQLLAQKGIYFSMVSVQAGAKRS

Structure (SMILES) | Activity
CN1CC[C@]23c4c5ccc(O)c4O[C@H]2[C@@H](O)C=C[C@H]3[C@H]1C5 [MORPHINE] | substrate [+]
C=C[C@H]1C[N@@]2CC[C@H]1C[C@@H]2[C@@H](O)c1ccnc2ccc(OC)cc12 [QUINIDINE] | substrate [+]
